pIC50, pKi: −log10 of the molar value. Like-named read-outs stand apart in the source and are kept apart here. Marks after values point to notes of the source that are not given here.
What was measured:
[1] = biological target: T1, Human cannabinoid receptor CB2R (Homo sapiens, UniProt P34972); assay: Human cannabinoid receptor binding inhibition, [3H]CP55940, CB2R; conditions: membranes of CB2R-expressing CHO cells, [3H]CP55940 0.5 nM; read-out: Ki CB2 receptor
T1 construct: expressed in transfected cells; host or cells: CHO cells
T1 sequence (P34972 whole entry): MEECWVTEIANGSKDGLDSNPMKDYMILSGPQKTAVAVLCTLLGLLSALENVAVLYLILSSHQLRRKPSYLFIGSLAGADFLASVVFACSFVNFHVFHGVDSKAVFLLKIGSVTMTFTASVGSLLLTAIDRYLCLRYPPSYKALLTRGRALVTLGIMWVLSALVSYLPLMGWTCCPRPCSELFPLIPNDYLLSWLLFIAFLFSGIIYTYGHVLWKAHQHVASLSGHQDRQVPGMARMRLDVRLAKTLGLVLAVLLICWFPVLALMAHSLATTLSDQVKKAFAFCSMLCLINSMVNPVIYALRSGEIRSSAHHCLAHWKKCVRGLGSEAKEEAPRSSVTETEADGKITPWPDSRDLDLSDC
Procedure: (§1) The crude membrane fractions as Human cannabinoid receptor were then prepared from the CB1R or CB2R-expressing CHO cells. Receptor binding assay was performed by incubating the membranes with each test compound and 38,000 dpm [^3H]CP55940 (at a final concentration of 0.5 nM: NEN Life Science Products) in the assay buffer (50 mM Tris-HCl; 1 mM EDTA, 3 mM MgCl2, pH 7.4) containing 0.5% bovine serum albumin (BSA) for 2 hr at 25° C. The incubation mixture was filtered through 1% polyethylenimine (PEI)-treated GF/C glass filter and washed with 50 mM Tris-HCl (pH 7.4) containing 0.1% BSA. The radioactivity was then counted with a liquid scintillation counter. […] Ki value of test compound is calculated by obtained IC50 value and Kd value of [^3H]CP55940.

[2] = biological target: T2, Human cannabinoid receptor CB1R (Homo sapiens, UniProt P21554); assay: Human cannabinoid receptor binding inhibition, [3H]CP55940, CB1R; conditions: membranes of CB1R-expressing CHO cells, [3H]CP55940 0.5 nM; read-out: Ki CB1 receptor
T2 construct: expressed in transfected cells; host or cells: CHO cells
T2 sequence (P21554 whole entry): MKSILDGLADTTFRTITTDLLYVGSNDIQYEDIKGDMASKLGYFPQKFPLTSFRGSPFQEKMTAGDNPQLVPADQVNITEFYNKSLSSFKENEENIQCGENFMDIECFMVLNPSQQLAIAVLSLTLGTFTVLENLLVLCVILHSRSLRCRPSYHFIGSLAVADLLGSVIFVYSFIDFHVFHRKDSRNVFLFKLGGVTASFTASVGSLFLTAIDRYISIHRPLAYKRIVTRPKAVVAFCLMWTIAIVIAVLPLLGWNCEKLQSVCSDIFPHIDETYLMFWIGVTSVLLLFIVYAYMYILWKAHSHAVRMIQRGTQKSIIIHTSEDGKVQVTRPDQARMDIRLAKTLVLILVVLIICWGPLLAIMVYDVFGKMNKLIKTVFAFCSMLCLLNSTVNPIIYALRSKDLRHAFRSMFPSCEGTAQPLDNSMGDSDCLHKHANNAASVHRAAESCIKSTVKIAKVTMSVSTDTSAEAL
Procedure: as §1

human CB2R = biological target: T3, human CB2R (Homo sapiens, UniProt P34972); assay: Cannabinoid receptor-mediated suppression of forskolin-stimulated cAMP synthesis, CB2R; assay type: cell-based
T3 construct: expressed in transfected cells; host or cells: CHO cells
T3 sequence (P34972 whole entry): as the sequence (P34972 whole entry) above

human CB1R = biological target: T4, human CB1R (Homo sapiens, UniProt P21554); assay: cell-based; conditions: CHO cells expressing human CB1R, forskolin-stimulated cAMP synthesis; read-out: CB1 receptor IC50
T4 construct: expressed in transfected cells; host or cells: CHO cells
T4 sequence (P21554 whole entry): as the sequence (P21554 whole entry) above

mouse CB2 receptor = biological target: T5, mouse CB2 receptor (Mus musculus, UniProt P47936); assay: Binding inhibitory activity to mouse cannabinoid receptors, spleen membrane fraction; parameters: species or system C57BL/6 J mice; conditions: mouse spleen membrane fraction; read-out: Binding Assay: Ki Spleen (CB2)
T5 construct: The membrane fractions of mouse brain and spleen that abundantly express CB1 and CB2 receptor, respectively; from tissue; host or cells: mouse spleen membrane fraction (C57BL/6 J)
T5 sequence (P47936 whole entry): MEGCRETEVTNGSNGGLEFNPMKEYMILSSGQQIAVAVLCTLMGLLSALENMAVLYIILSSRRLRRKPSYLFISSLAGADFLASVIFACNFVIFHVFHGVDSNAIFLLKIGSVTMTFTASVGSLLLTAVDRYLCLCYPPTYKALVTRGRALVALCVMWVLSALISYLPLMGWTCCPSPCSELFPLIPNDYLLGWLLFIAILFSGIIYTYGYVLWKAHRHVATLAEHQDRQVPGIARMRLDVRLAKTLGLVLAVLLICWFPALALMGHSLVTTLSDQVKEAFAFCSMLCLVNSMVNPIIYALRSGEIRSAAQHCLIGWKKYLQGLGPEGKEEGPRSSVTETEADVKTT

[3] = test system: compound 48/80-induced pruritus; assay: Inhibitory effect on compound 48/80-induced pruritus in ICR strain mice; conditions: for Antipruritic Effect (%): ICR mice, compound 48/80-induced scratching
[4] = CHO cells expressing human CB2R, forskolin-stimulated cAMP synthesis, read-out: CB2 receptor IC50

Cc1ccc(Oc2nc3ccccc3o2)c(=S)n1C
melting point: 245 to 247 °C

CCn1c(C)c(C)cc(C(=O)NCc2ccccc2)c1=O
melting point: 117 °C

CCCCn1c(C)c(C)cc(NC(=O)c2ccc(F)cc2)c1=O
melting point: 129 to 130 °C

CCCCn1c(C)c(C)cc(NC(=O)OCc2ccccc2)c1=O
melting point: 65 to 66 °C

CCCCn1c(C)c(C)cc(NC(=O)Nc2ccccc2Br)c1=O
melting point: 154 to 155 °C

COc1c(Oc2nc3ccccc3o2)c(C)c(C)n(Cc2ccccc2)c1=O
melting point: 197 to 198 °C

CCCCn1c(C)c(C)cc(Oc2nc3ccccc3o2)c1=S [Compound 2-004, 1-butyl-5,6-dimethyl-3-O-(benzoxazol-2-yl)-2-thiopyridone]
pKi [1]: 7.00

CCCCn1c(C)c(C)cc(C(=O)NCCc2ccccc2)c1=O [Compound 3-010]
pKi [1]: 7.24

CCCCn1c(C)c(I)cc(C(=O)NCCc2ccccc2)c1=O [Compound 3-038]
pKi [2]: 5.90 | pKi [1]: 7.92 | pIC50 (human CB2R): 7.54

Cc1c(C)c(C)n(CC2CCCCC2)c(=O)c1C(=O)NCc1ccccc1 [Compound 3-109]
pIC50 (human CB1R): 8.57

CCCCn1c2c(cc(C(=O)NCc3ccccc3)c1=O)CCCC2 [Compound 4-001]
pKi [2]: 5.55 | pKi [1]: 7.55 | pIC50 (human CB2R): 7.19

CCCCn1c2c(cc(C(=O)NCCc3ccccc3)c1=O)CCCC2 [Compound 4-002, 1-butyl-2-oxo-1,2,5,6,7,8-hexahydroquinoline-3-carboxylic acid phenethylamide]
pKi [2]: 6.13 | pKi [1]: 7.77

CCCCn1c2c(cc(C(=O)NCCc3ccccc3)c1=O)CCC2 [Compound 4-052]
pKi [2]: 5.82 | pKi [1]: 7.62

CCCCn1c2c(cc(C(=O)NCCc3ccccc3)c1=O)CCCCCC2 [Compound 4-102]
pKi [2]: 6.04 | pKi [1]: 8.80 | pIC50 (human CB2R): 8.77

CCCCn1c2c(cc(C(=O)NCCc3ccc(N)cc3)c1=O)CCCCCC2 [Compound 4-104]
pKi [2]: 7.27 | pKi [1]: 8.22 | pIC50 (human CB2R): 8.01

CCCCn1c2c(cc(C(=O)NCCc3ccc(O)cc3)c1=O)CCCCCC2 [Compound 4-105]
pKi [2]: 7.04 | pKi [1]: 8.68

COCCn1c2c(cc(C(=O)NCc3ccccc3)c1=O)CCCCCC2 [Compound 4-301]
pKi [2]: 5.75 | pKi [1]: 8.10

COCCn1c2c(cc(C(=O)NCCc3ccccc3)c1=O)CCCCCC2 [Compound 4-302]
pKi [2]: < 5.30 | pKi [1]: 8.00

O=C(NCc1ccccc1)c1cc2c(n(Cc3ccncc3)c1=O)CCCCCC2 [Compound 4-310]
pKi [2]: 6.29 | pKi [1]: 8.05

CCCCn1c(C)c(C)cc(NC(=O)c2ccccc2Cl)c1=O [Compound 5-005]
pKi [1]: 7.80

CCCCn1c(C)c(C)cc(NC(=O)c2ccccc2C)c1=O [Compound 5-006]
pKi [1]: 7.85

CCCCn1c2c(cc(C(=O)NCC(C)(C)C)c1=O)CCCCCC2 [Compound 10-041]
pIC50 (human CB1R): 8.46

CCCCn1c2c(cc(C(=O)NC(=O)c3c(F)cccc3F)c1=O)CCCCCC2 [Compound 10-045]
pIC50 (human CB1R): 8.92

CCCCn1c2c(cc(C(=O)N[C@H](C)C3CCCCC3)c1=O)CCCCCC2 [Compound 10-050]
pIC50 (human CB1R): 8.70

CCCCn1c2c(cc(C(=O)N[C@H](CC)c3ccccc3)c1=O)CCCCCC2 [Compound 10-058]
pIC50 (human CB1R): 8.62

CCCCn1c2c(cc(C(=O)N[C@@H](CC)c3ccccc3)c1=O)CCCCCC2 [Compound 10-059]
pIC50 (human CB1R): 8.21

CCCCn1c2c(cc(C(=O)N[C@H](CF)c3ccccc3)c1=O)CCCCCC2 [Compound 10-089]
pIC50 (human CB1R): 8.03

CCCCn1c2c(cc(C(=O)Nc3ccccc3C(F)(F)F)c1=O)CCCCCC2 [Compound 10-103]
pIC50 (human CB1R): 8.20

CCCCn1c(C)c(C)cc(C(=O)NC(C)(C)c2ccccc2)c1=O [Compound 11-001]
pIC50 (human CB1R): 8.92

Cc1cc(C(=O)NC2CCCc3ccccc32)c(=O)n(CC2CCCCC2)c1C (stereo not drawn) [Compound 11-011]
pIC50 (human CB1R): 9.22

CCC(C)CNC(=O)c1cc(C)c(C)n(CC2CCCCC2)c1=O (stereo not drawn) [Compound 11-012]
pIC50 (human CB1R): 8.11

Cc1cc(C(=O)NCC(C)(C)C)c(=O)n(CC2CCCCC2)c1C [Compound 11-013]
pIC50 (human CB1R): 8.12

CCCCn1c2c(cc(NC(=O)c3ccccc3Cl)c1=O)CCCCCC2 [Compound 13-006]
pIC50 (human CB1R): 8.80

CCCCn1c2c(cc(C(=O)NC(C)(C)c3ccccc3)c1=O)[C@@H]1CC[C@H]2C1 [Compound 13-023]
pIC50 (human CB1R): 9.52

CCCCn1c(-c2ccccc2)c(C)cc(C(=O)NC(C)(C)c2ccccc2)c1=O [Compound 13-030]
pIC50 (human CB1R): 9.15

CCCCn1c2c(cc(C(=O)NC(C)(C)c3ccccc3)c1=O)COCC2 [Compound 13-044]
pIC50 (human CB1R): 8.74

CCSC(=O)N1CCSC1=Nc1ccccc1C(C)C [Compound I-6]
pKi [2]: < 5.30

CCSC(=O)N1CC(C)(C)CSC1=Nc1ccc(C)cc1C [Compound I-39]
pIC50 (human CB2R; [4]): 7.86

CCSC(=O)N1CC(C)(C)CSC1=Nc1ccc([N+](=O)[O-])cc1C(C)C [Compound I-46]
pIC50 (human CB2R; [4]): 8.27 | melting point: 119 to 120 °C

CCCc1ccccc1N=C1SCC(C)(C)CN1C(=O)SC [Compound I-49]
pIC50 (human CB2R; [4]): 8.66 | melting point: 64 to 66 °C

CSC(=O)N1CC(C)(C)CSC1=Nc1ccccc1C(C)C [Compound I-50]
melting point: 95 to 96 °C

CCC(C)c1ccccc1N=C1SCC(C)(C)CN1C(=O)SC (stereo not drawn) [Compound I-51]
melting point: 53 to 56 °C

CSC(=O)N1CC(C)(C)CSC1=Nc1cccc(C(C)C)c1 [Compound I-52]
melting point: 88 to 90 °C

CCc1ccccc1N=C1SCC(C)(C)CN1C(=S)SC [Compound I-56]
melting point: 107 to 109 °C

COc1ccccc1N=C1SCC(C)(C)CN1C(=S)SC [Compound I-60]
melting point: 128 to 130 °C

CSC(=S)N1CC(C)(C)CSC1=Nc1ccccc1SC [Compound I-62]
melting point: 137 to 139 °C

CSC(=S)N1CC(C)(C)CSC1=Nc1ccc(C)c(C)c1 [Compound I-74]
pIC50 (human CB2R; [4]): 8.80 | melting point: 126 to 128 °C

CCSC(=S)N1CC(C)(C)CSC1=Nc1ccccc1C(C)C [Compound I-84]
melting point: 68 to 70 °C

CCNC(=O)N1CC(C)(C)CSC1=Nc1ccccc1C(C)C [Compound I-92]
pIC50 (human CB2R; [4]): > 9.70 | melting point: 52 to 53 °C

COCC(=O)N1CC(C)(C)CSC1=Nc1ccccc1C(C)C [Compound I-93]
pIC50 (human CB2R; [4]): 9.22 | melting point: 76 to 78 °C

CC(C)OC(=O)CSC(=S)N1CC(C)(C)CSC1=Nc1ccccc1C(C)C [II-13]
melting point: 95 to 96 °C

C=CCSC(=S)N1CC2(CCCCC2)CSC1=Nc1ccc(CC)cc1 [II-88]
melting point: 98 to 100 °C

C=CCSC(=S)N1CC2(CCOCC2)CSC1=Nc1ccccc1C(C)C [II-92]
melting point: 73.5 to 75 °C

CSC(=S)N1CC2(CCOCC2)CSC1=Nc1ccccc1C(C)C [II-93]
melting point: 127 to 128 °C

Cc1c(C(=O)c2cccc3ccccc23)c2cccc3c2n1[C@H](CN1CCOCC1)CO3 [WIN55212-2, reference compound]
pKi (mouse CB2 receptor): 8.22 | Antipruritic Effect (%) ([3]; 100 mg/kg (p.o.)): 70* %

CCCCCc1cc(O)c2c(c1)OC(C)(C)[C@@H]1CCC(C)=C[C@@H]21 [Δ^9-tetrahydrocannabinol, delta-9-tetrahydrocannabinol, reference compound]
pKi (mouse CB2 receptor): 8.04 | Antipruritic Effect (%) ([3]; 10 mg/kg (i.p.)): 98**# % | inhibitory effect on compound 48/80-induced pruritus (number of scratching vs vehicle group) ([3]; female ICR mice, oral administration once, scratching counted for 30 min): inhibited compound 48/80-induced pruritus

From patent US20080312292A1, “Antipruritics” (priority 2002, published 2008)
